# Patent publication US9296704B2, “Substituted pyrimidines as protein kinase inhibitors” (CELGENE AVILOMICS RESEARCH, INC., priority 2007, dated 2016)
# Columns and labels:
# Format in all cases: biochemical
# EGFR (WT) = biological target: T1, EGFR (WT) (Homo sapiens, UniProt P00533); experiment: Omnia continuous-read kinase assay, EGFR (WT); conditions: read-out: EGFR inhibtion
# T1 construct: purchased Invitrogen PV3872
# From the text: (§1) The protocol below describes continuous-read kinase assays to measure inherent potency of compounds against active forms of EGFR (WT) and EGFR (T790M/L858R) enzymes. The mechanics of the assay platform are best described by the vendor (Invitrogen, Carlsbad, Calif.) on their website at the following URL: http://www.invitrogen.com/content.cfm?pageid=11338 or http://www.invitrogen.com/site/us/en/home/Products-and-Services/Applications/Drug-Discovery/Target-and-Lead-Identification-and-Validation/KinaseBiology/KB-Misc/Biochemical-Assays/Omnia-Kinase-Assays.html.
# (§2) Briefly, 10× stocks of EGFR-WT (PV3872) from Invitrogen and EGFR-T790M/L858R (40350) from BPS Bioscience, San Diego, Calif., 1.13×ATP (AS001A) and appropriate Tyr-Sox conjugated peptide substrates (KCZI001) were prepared in 1× kinase reaction buffer consisting of 20 mM Tris, pH 7.5, 5 mM MgCl2, 1 mM EGTA, 5 mM β-glycerophosphate, 5% glycerol (10× stock, KB002A) and 0.2 mM DTT (DS001A). 5 μL of each enzyme were pre-incubated in a Corning (#3574) 384-well, white, non-binding surface microtiter plate (Corning, NY) for 30 min. at 27° C. with a 0.5 μL volume of 50% DMSO and serially diluted compounds prepared in 50% DMSO. Kinase reactions were started with the addition of 45 μL of the ATP/Tyr-Sox peptide substrate mix and monitored every 30-90 seconds for 60 minutes at λex360/λem485 in a Synergy^4 plate reader from BioTek (Winooski, Vt.). At the conclusion of each assay, progress curves from each well were examined for linear reaction kinetics and fit statistics (R^2, 95% confidence interval, absolute sum of squares). Initial velocity (0 minutes to ˜30 minutes) from each reaction was determined from the slope of a plot of relative fluorescence units vs time (minutes) and then plotted against inhibitor concentration to estimate IC50 from log [Inhibitor] vs Response, Variable Slope model in GraphPad Prism from GraphPad Software (San Diego, Calif.).
# (§3) The EGFR-WT- and EGFR T790M/L858R-modified optimized reagent conditions are: • [EGFR-WT]=5 nM, [ATP]=[…], [Y12-Sox]=[…]; and [EGFR-T790M/L858R]=3 nM, [ATP]=[…], [Y12-Sox]=[…].
# EGFR (T790M/L858R) = biological target: T2, EGFR (T790M/L858R) (Homo sapiens, UniProt P00533, L858R/T790M); experiment: Omnia continuous-read kinase assay, EGFR (T790M/L858R); conditions: read-out: EGFR (T790M/L858R) inhibiton
# T2 construct: purchased BPS Bioscience 40350
# From the text: as §1, §2, §3
# BTK = BTK (Homo sapiens, UniProt Q06187); experiment: Omnia assay for potency against BTK; conditions: read-out: BTK Inhibition
# From the text: as §1, §2
# The Omnia Assay Protocol for potency assessment against BTK is performed in a substantially similar manner as that described in Example 25 above except that the modified BTK-optimized reagent conditions are: • [BTK]=5 nM, [ATP]=[…], [Y5-Sox]=[…] (ATP KMapp ˜[…]).
# JAK3 = biological target: T3, JAK3 (Homo sapiens, UniProt P52333); experiment: Omnia assay for potency against JAK3; conditions: read-out: JAK3 Inhibition
# T3 sequence (P52333 1-1124): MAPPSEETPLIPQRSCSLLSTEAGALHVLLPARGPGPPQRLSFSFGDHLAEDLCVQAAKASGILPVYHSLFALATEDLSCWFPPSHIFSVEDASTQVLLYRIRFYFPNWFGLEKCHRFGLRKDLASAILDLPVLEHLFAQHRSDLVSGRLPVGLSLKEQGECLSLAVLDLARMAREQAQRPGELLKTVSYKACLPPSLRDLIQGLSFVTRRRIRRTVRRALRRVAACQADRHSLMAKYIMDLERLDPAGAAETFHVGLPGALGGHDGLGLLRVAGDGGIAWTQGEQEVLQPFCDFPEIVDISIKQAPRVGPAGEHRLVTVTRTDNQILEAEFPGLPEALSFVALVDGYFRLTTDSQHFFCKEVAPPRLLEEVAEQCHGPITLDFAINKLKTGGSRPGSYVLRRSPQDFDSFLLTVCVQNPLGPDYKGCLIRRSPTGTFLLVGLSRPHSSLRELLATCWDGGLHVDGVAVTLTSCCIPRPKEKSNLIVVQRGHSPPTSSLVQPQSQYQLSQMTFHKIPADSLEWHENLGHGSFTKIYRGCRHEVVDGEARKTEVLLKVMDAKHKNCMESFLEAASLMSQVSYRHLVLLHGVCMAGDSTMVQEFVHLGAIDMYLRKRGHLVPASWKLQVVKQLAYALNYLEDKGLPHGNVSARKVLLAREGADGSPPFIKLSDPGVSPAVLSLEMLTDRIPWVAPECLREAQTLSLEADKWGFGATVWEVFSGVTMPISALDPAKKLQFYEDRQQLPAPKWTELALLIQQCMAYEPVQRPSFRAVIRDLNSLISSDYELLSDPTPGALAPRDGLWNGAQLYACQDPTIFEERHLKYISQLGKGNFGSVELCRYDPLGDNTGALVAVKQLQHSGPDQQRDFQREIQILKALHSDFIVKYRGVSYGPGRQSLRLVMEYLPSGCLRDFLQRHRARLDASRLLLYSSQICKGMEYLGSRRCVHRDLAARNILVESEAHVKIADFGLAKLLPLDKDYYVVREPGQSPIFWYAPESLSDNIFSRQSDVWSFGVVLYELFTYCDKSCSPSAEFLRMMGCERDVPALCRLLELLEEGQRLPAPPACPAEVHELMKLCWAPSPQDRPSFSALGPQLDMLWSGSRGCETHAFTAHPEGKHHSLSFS
# From the text: as §1, §2
# The Omnia Assay Protocol for potency assessment against JAK3 is performed in a substantially similar manner as that described in Example 25 above except that the modified JAK3-optimized reagent conditions are: • [JAK3]=5 nM, [ATP]=5 μM, [Y12-Sox]=5 μM (ATP KMapp ˜[…]).
# T1 sequence (P00533 25-1210): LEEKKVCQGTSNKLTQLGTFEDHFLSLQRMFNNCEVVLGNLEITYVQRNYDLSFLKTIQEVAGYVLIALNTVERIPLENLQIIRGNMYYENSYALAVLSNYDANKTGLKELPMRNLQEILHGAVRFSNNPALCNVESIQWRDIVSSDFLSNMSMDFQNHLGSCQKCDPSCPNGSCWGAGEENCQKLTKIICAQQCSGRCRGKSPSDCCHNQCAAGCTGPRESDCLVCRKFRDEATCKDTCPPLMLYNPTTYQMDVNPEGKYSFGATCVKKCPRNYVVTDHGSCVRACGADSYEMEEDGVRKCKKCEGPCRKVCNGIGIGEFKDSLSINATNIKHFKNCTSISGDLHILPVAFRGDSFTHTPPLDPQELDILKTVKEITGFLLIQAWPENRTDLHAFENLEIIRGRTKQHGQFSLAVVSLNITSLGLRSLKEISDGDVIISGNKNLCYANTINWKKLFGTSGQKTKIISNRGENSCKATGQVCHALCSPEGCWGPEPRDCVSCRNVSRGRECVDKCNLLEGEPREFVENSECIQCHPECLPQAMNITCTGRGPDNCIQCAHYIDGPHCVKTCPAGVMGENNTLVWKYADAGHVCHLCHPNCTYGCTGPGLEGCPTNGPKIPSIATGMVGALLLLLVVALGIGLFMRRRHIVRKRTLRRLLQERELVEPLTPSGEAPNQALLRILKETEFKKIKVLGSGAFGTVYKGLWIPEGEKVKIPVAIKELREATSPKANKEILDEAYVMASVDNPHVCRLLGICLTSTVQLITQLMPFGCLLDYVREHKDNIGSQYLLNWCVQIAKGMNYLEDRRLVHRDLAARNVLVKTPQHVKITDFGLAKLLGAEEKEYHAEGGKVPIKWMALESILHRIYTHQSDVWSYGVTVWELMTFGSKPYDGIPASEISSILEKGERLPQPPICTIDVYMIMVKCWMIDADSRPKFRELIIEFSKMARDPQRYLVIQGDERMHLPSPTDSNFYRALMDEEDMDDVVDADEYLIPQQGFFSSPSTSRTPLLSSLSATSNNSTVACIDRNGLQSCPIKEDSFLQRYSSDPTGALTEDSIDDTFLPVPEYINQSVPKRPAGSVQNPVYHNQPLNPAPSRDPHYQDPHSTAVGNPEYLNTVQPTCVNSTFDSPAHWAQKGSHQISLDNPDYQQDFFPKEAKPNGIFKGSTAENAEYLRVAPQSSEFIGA
# Chain of BTK (Q06187 whole entry): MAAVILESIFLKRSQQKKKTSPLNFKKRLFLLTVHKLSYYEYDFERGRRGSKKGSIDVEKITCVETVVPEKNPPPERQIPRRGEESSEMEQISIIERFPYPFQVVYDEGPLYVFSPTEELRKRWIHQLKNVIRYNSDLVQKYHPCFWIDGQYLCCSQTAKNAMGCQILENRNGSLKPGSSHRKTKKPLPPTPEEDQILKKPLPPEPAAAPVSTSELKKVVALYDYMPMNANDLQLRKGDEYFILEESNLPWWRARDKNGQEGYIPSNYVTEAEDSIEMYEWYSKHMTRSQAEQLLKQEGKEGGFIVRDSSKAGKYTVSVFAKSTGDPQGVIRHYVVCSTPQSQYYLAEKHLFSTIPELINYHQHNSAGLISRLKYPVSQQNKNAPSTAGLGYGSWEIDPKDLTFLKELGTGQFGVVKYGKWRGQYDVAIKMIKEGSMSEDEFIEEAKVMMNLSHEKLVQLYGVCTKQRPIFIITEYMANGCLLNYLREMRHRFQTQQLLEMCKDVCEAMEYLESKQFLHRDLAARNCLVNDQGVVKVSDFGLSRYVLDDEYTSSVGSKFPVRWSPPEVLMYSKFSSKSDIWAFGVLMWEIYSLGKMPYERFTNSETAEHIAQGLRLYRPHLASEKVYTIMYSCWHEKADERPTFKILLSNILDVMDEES
# T2 sequence (P00533 25-1210 T790M/L858R): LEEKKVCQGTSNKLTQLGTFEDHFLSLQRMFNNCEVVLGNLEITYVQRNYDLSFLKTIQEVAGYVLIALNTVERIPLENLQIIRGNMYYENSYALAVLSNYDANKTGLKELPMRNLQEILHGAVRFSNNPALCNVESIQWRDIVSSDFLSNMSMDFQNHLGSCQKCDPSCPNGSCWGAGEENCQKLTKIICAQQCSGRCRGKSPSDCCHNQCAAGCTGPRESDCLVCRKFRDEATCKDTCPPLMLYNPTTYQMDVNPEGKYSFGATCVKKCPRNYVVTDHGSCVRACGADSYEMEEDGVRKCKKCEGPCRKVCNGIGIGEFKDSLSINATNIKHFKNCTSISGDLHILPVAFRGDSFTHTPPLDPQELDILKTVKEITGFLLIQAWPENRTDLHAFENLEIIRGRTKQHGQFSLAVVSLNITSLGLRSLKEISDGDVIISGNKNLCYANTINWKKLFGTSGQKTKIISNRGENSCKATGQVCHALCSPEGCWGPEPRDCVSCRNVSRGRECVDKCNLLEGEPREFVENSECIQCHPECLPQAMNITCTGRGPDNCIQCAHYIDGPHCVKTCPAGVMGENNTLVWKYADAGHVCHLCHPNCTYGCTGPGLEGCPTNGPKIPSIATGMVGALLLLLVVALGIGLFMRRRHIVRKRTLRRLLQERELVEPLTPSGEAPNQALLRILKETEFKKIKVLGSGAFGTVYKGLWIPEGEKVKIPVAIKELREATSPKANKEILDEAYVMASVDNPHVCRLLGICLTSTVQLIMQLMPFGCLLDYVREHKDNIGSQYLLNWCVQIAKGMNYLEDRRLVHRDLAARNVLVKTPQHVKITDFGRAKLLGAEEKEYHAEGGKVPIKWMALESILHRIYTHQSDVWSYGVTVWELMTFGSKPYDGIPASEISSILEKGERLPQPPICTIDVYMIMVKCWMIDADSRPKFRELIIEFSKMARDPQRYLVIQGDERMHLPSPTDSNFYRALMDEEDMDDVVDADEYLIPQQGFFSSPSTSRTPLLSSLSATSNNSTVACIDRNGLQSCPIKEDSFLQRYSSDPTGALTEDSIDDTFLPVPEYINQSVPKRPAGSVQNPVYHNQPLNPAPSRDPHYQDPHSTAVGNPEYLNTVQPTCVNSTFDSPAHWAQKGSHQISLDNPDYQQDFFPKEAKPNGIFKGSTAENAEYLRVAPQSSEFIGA
Structure (SMILES),IC50 (EGFR (WT)),IC50 (EGFR (T790M/L858R)),IC50 (BTK),IC50 (JAK3)
CC(Cl)C(=O)Nc1cccc(Nc2cc(Nc3ccc(F)c(Cl)c3)ncn2)c1 (stereo not shown) [I-50)],≤ 0.01 µM,0.01 to 0.1 µM,,
"CC(Cl)C(=O)Nc1cccc(Nc2cc(Nc3ccc(F)c(Cl)c3)ncn2)c1 (stereo not shown) [I-50, 2-chloro-N-[3-(6-{3-chloro-4-fluorophenyl}aminopyrimidin-4-yl)aminophenyl]propionamide]",,,1 to 10 µM,0.1 to 1 µM
"CN(C)C/C=C/C(=O)Nc1cccc(Nc2cc(Nc3ccc(Oc4ccccc4)cc3)ncn2)c1 [I-62, (E)-N-3-[6-(4-phenoxyphenyl)amino-pyrimidin-4-yl]aminophenyl-4-(dimethylamino)but-2-enamide]",,,≤ 0.01 µM,0.1 to 1 µM
"C#Cc1cccc(Nc2cc(Nc3cccc(NC(=O)C=C)c3)ncn2)c1 [I-68, N-3-[6-(3-ethynylphenylamino)-pyrimidin-4-yl]aminophenyl-2-propenamide]",≤ 0.01 µM,,0.01 to 0.1 µM,≤ 0.01 µM
"O=C(CCl)Nc1cccc(Nc2cc(Oc3ccc(NC(=O)Nc4ccc(Cl)c(C(F)(F)F)c4)cc3)ncn2)c1 [I-69, N-3-[6-(4-[4-[[4-chloro-3-(trifluoromethyl)phenyl]amino]-carbonyl]amino)phenoxypyrimidin-4-yl]aminophenylchloroacetamide]",0.01 to 0.1 µM,,0.1 to 1 µM,0.1 to 1 µM
"C=CC(=O)N1CCC(Nc2cc(Nc3ccc(F)c(Cl)c3)ncn2)C1 (stereo not shown) [I-70, 1-(3-(6-(3-chloro-4-fluorophenyamino)pyrimidin-4-ylamino)pyrrolidin-1-yl)prop-2-en-1-one]",≤ 0.01 µM,,0.1 to 1 µM,0.1 to 1 µM
"C=CC(=O)N1CCCC(Nc2cc(Nc3ccc(F)c(Cl)c3)ncn2)C1 (stereo not shown) [I-71, 1-(3-(6-(3-chloro-4-fluorophenyamino)pyrimidin-4-ylamino)piperidin-1-yl)prop-2-en-1-one]",≤ 0.01 µM,,1 to 10 µM,1 to 10 µM
"CN(C)C/C=C/C(=O)Nc1cccc(Nc2cc(Nc3ccccc3)ncn2)n1 [I-73, (E)-4-(dimethylamino)-N-(6-(6-(phenylamino)pyrimidin-4-ylamino)pyridine-2-yl)but-2-enamide]",≤ 0.01 µM,,≤ 0.01 µM,≤ 0.01 µM
"C=CC(=O)Nc1cccc(Nc2cc(Nc3cccc(Oc4ccccc4)c3)ncn2)c1 [I-75, N-(3-(6-(3-phenoxyphenylamino)pyrimidin-4-ylamino)phenyl)acrylamide]",≤ 0.01 µM,,≤ 0.01 µM,0.1 to 1 µM
"C=CC(=O)Nc1ccc(Nc2cc(Nc3ccc(Oc4ccccc4)cc3)ncn2)cc1 [I-80, N-4-[6-(4-phenoxyphenyl)amino-pyrimidin-4-yl]aminophenylpropenamide]",0.1 to 1 µM,,1 to 10 µM,≥ 10 µM
"C=C(C)C(=O)c1cccc(Nc2cc(Nc3ccc(Oc4ccccc4)cc3)ncn2)c1 [I-83, 2-methyl-1-(3-(6-(4-phenoxyphenylamino)pyrimidin-4-ylamino)phenyl)prop-2-en-1-one]",≤ 0.01 µM,,≤ 0.01 µM,
C=C(C#N)C(O)c1cccc(Nc2cc(Nc3ccc(Oc4ccccc4)cc3)ncn2)c1 (stereo not shown) [I-84],0.01 to 0.1 µM,,1 to 10 µM,≥ 10 µM
"C=CC(=O)N1CCC(Nc2cc(Nc3ccc(Oc4ccccc4)cc3)ncn2)C1 (stereo not shown) [I-85, 1-(3-(6-(4-phenoxyphenylamino)pyrimidin-4-ylamino)pyrrolidin-1-yl)prop-2-en-1-one]",0.01 to 0.1 µM,,0.01 to 0.1 µM,1 to 10 µM
"C=CC(=O)N1CCCC(Nc2cc(Nc3ccc(Oc4ccccc4)cc3)ncn2)C1 (stereo not shown) [I-86, 1-(3-(6-(4-phenoxyphenylamino)pyrimidin-4-ylamino)piperidin-1-yl)prop-2-en-1one]",0.01 to 0.1 µM,,0.01 to 0.1 µM,≥ 10 µM
"CC(C)=CC(=O)c1cccc(Nc2cc(Nc3ccc(Oc4ccccc4)cc3)ncn2)c1 [I-87, 3-methyl-1-(3-(6-(4-phenoxyphenylamino)pyrimidin-4-ylamino)phenyl)but-2-en-1-one]",0.01 to 0.1 µM,,≥ 10 µM,
"C=CC(=O)Nc1cccc(Nc2cc(Oc3ccc(OC)cc3)ncn2)n1 [I-91, N-(6-(6-(4-methoxyphenoxy)pyrimidin-4-ylamino)pyridine-2-yl)acrylamide]",≤ 0.01 µM,,≤ 0.01 µM,
CN(C)C/C=C/C(=O)Nc1cccc(Nc2cc(Oc3ccc(F)c(Cl)c3)ncn2)c1 [I-92)],≤ 0.01 µM,,,
"CN(C)C/C=C/C(=O)Nc1cccc(Nc2cc(Oc3ccc(F)c(Cl)c3)ncn2)c1 [I-92, (E)-N-(3-(6-(3-chloro-4-fluorophenoxy)pyrimidin-4-ylamino)phenyl)-4-(dimethylamino)but-2-enamide]",,,0.01 to 0.1 µM,0.01 to 0.1 µM
"C=CC(=O)Nc1cccc(Nc2cc(Oc3ccc(Oc4ccccc4)cc3)ncn2)c1 [I-97, N-(3-(6-(4-phenoxyphenoxy)pyrimidin-4-ylamino)phenyl)acrylamide]",≤ 0.01 µM,,0.1 to 1 µM,
"C=CC(=O)Nc1cc(Nc2cc(Oc3ccc(Oc4ccccc4)cc3)ncn2)cc(C(=O)NCCOC)c1 [I-102, 3-acrylamido-N-(2-methoxyethyl)-5-(6-(4-phenoxyphenoxy)pyrimidin-4-ylamino)benzamide]",≤ 0.01 µM,,0.01 to 0.1 µM,
"C=CC(=O)Nc1cccc(Nc2cc(Sc3ccc(Oc4ccccc4)cc3)ncn2)c1 [I-103, N-(3-(6-(4-phenoxyphenylthio)pyrimidin-4-ylamino)phenyl)acrylamide]",≤ 0.01 µM,,0.1 to 1 µM,
"C=CC(=O)N1CC(C)(C)Oc2ccc(Nc3cc(Oc4cccc(Cl)c4)ncn3)cc21 [I-104, 1-(6-(6-(3-chlorophenoxy)pyrimidin-4-ylamino)-2,2-dimethyl-2H-benzo[b][1,4]oxazin-4(3H)-yl)prop-2-en-1-one]",≤ 0.01 µM,,≤ 0.01 µM,
"C=CC(=O)Nc1cc(Nc2cc(Oc3cccc(Cl)c3)ncn2)ccc1N1CCOCC1 [I-105, N-(2-morpholino-5-(6-(3-chlorophenoxy)pyrimidin-4-ylamino)phenyl)acrylamide]",≤ 0.01 µM,,0.01 to 0.1 µM,
